Results from the supplement of paper PMC6045584.
± gives the standard deviation of the averaged measurements.

compound: COc1cc2ncnc(Nc3ccc(F)c(Cl)c3)c2cc1OCCCN1CCOCC1 [GEFITINIB]; experiment: surviving fraction relative to DMSO-only wells; higher = less growth inhibition; details: 50 nM; exposure time: 5 days
Method in brief: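 Viability values are CellTiter-Glo luminescence readings, given as surviving fraction against the median of DMSO-only wells. The readings were taken after 10 minutes at room temperature, following five days of continuous exposure to inhibitors at 0.5, 1, 5, 10, 50, 100, 500 and 1000 nM that began 24 hours after log-phase tumour cell lines were seeded at 250–500 cells per well in 384-well plates. Every line was screened three times and kept only if replicate Pearson r >0.7 and median Z' >0.3.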

| Test System | surviving fraction |
| --- | --- |
| MG63 BONE | 1.11 ± 0.046 |
| MHM BONE | 1.03 ± 0.012 |
| NCIH441 LUNG | 1.07 ± 0.18 |
| NOS1 BONE | 1.17 ± 0.085 |
| NY BONE | 1.07 ± 0.026 |
| OS25HAL BONE | 1.09 ± 0.069 |
| OSHN BONE | 1.15 ± 0.0076 |
| RDES SOFT TISSUE | 1.03 ± 0.26 |
| SCC47 HEADNECK | 0.993 ± 0.017 |
| SCC90 HEADNECK | 0.804 ± 0.019 |
| SG27 HEADNECK | 1.14 ± 0.13 |
| SG28 HEADNECK | 0.758 ± 0.069 |
| SG31 HEADNECK | 0.855 ± 0.24 |
| SG32 HEADNECK | 1.28 ± 0.066 |
| SG43 HEADNECK | 0.649 ± 0.17 |
| SIHA CERVIX | 1.12 ± 0.11 |
| SJSA1 BONE | 1.8 ± 0.065 |
| SKBR3 BREAST | 1 ± 0.062 |
| SNU475 LIVER | 1.02 ± 0.045 |
| SUM44 BREAST | 1.45 ± 0.42 |
| SUM149.B1*.S BREAST | 1.1 ± 0.026 |
| SUM159 BREAST | 1.08 ± 0.014 |
| SYO1 SYNOVIAL | 0.984 ± 0.017 |
| T47D BREAST | 1.13 ± 0.015 |
| U2OS BONE | 1.04 ± 0.027 |
| VCAP PROSTATE | 1.19 ± 0.083 |
| VP229 BREAST | 0.875 ± 0.084 |
| YAMATO SYNOVIAL | 1.42 ± 0.086 |
| ZR751 BREAST | 0.901 ± 0.071 |

same assay, conditions: 100 nM; exposure time: 5 days

| Test System | surviving fraction |
| --- | --- |
| MG63 BONE | 1.08 ± 0.027 |
| MHM BONE | 1.026 ± 0.01 |
| NCIH441 LUNG | 1.12 ± 0.18 |
| NOS1 BONE | 1.11 ± 0.046 |
| NY BONE | 1.14 ± 0.016 |
| OS25HAL BONE | 1.15 ± 0.019 |
| OSHN BONE | 1.15 ± 0.024 |
| RDES SOFT TISSUE | 1.22 ± 0.12 |
| SCC47 HEADNECK | 0.899 ± 0.028 |
| SCC90 HEADNECK | 0.651 ± 0.057 |
| SG27 HEADNECK | 1.12 ± 0.13 |
| SG28 HEADNECK | 0.679 ± 0.033 |
| SG31 HEADNECK | 0.845 ± 0.23 |
| SG32 HEADNECK | 1.1 ± 0.12 |
| SG43 HEADNECK | 0.406 ± 0.034 |
| SIHA CERVIX | 1.1 ± 0.059 |
| SJSA1 BONE | 1.67 ± 0.033 |
| SKBR3 BREAST | 0.844 ± 0.026 |
| SNU475 LIVER | 0.979 ± 0.038 |
| SUM44 BREAST | 1.33 ± 0.32 |
| SUM149.B1*.S BREAST | 1.1 ± 0.06 |
| SUM159 BREAST | 1.04 ± 0.031 |
| SYO1 SYNOVIAL | 0.898 ± 0.024 |
| T47D BREAST | 1.083 ± 0.01 |
| U2OS BONE | 1.04 ± 0.031 |
| VCAP PROSTATE | 1.08 ± 0.056 |
| VP229 BREAST | 0.681 ± 0.042 |
| YAMATO SYNOVIAL | 1.32 ± 0.1 |
| ZR751 BREAST | 0.994 ± 0.035 |

same assay, conditions: 500 nM; exposure time: 5 days

| Test System | surviving fraction |
| --- | --- |
| MG63 BONE | 0.999 ± 0.033 |
| MHM BONE | 0.9993 ± 0.0096 |
| NCIH441 LUNG | 1.01 ± 0.21 |
| NOS1 BONE | 0.871 ± 0.048 |
| NY BONE | 0.998 ± 0.019 |
| OS25HAL BONE | 1.08 ± 0.069 |
| OSHN BONE | 1.142 ± 0.0066 |
| RDES SOFT TISSUE | 1.16 ± 0.19 |
| SCC47 HEADNECK | 0.649 ± 0.018 |
| SCC90 HEADNECK | 0.474 ± 0.044 |
| SG27 HEADNECK | 1.09 ± 0.024 |
| SG28 HEADNECK | 0.501 ± 0.059 |
| SG31 HEADNECK | 0.732 ± 0.2 |
| SG32 HEADNECK | 0.826 ± 0.15 |
| SG43 HEADNECK | 0.264 ± 0.033 |
| SIHA CERVIX | 0.99 ± 0.084 |
| SJSA1 BONE | 1.68 ± 0.052 |
| SKBR3 BREAST | 0.361 ± 0.0087 |
| SNU475 LIVER | 0.939 ± 0.021 |
| SUM44 BREAST | 1.33 ± 0.49 |
| SUM149.B1*.S BREAST | 1.03 ± 0.034 |
| SUM159 BREAST | 1.03 ± 0.036 |
| SYO1 SYNOVIAL | 1 ± 0.021 |
| T47D BREAST | 1.065 ± 0.0084 |
| U2OS BONE | 0.959 ± 0.0095 |
| VCAP PROSTATE | 1.21 ± 0.16 |
| VP229 BREAST | 0.347 ± 0.028 |
| YAMATO SYNOVIAL | 1.35 ± 0.08 |
| ZR751 BREAST | 0.734 ± 0.034 |

same assay, conditions: 1000 nM; exposure time: 5 days

| Test System | surviving fraction |
| --- | --- |
| MG63 BONE | 1.01 ± 0.033 |
| MHM BONE | 0.972 ± 0.013 |
| NCIH441 LUNG | 0.963 ± 0.058 |
| NOS1 BONE | 0.754 ± 0.031 |
| NY BONE | 0.969 ± 0.032 |
| OS25HAL BONE | 1.05 ± 0.029 |
| OSHN BONE | 1.11 ± 0.021 |
| RDES SOFT TISSUE | 1.2 ± 0.14 |
| SCC47 HEADNECK | 0.602 ± 0.039 |
| SCC90 HEADNECK | 0.465 ± 0.054 |
| SG27 HEADNECK | 1.11 ± 0.016 |
| SG28 HEADNECK | 0.504 ± 0.016 |
| SG31 HEADNECK | 0.54 ± 0.11 |
| SG32 HEADNECK | 0.961 ± 0.094 |
| SG43 HEADNECK | 0.21 ± 0.043 |
| SIHA CERVIX | 0.956 ± 0.061 |
| SJSA1 BONE | 1.68 ± 0.018 |
| SKBR3 BREAST | 0.249 ± 0.03 |
| SNU475 LIVER | 0.898 ± 0.028 |
| SUM44 BREAST | 1.14 ± 0.22 |
| SUM149.B1*.S BREAST | 0.98 ± 0.032 |
| SUM159 BREAST | 1.036 ± 0.0092 |
| SYO1 SYNOVIAL | 0.935 ± 0.024 |
| T47D BREAST | 1.06 ± 0.021 |
| U2OS BONE | 0.98 ± 0.048 |
| VCAP PROSTATE | 1.07 ± 0.076 |
| VP229 BREAST | 0.281 ± 0.008 |
| YAMATO SYNOVIAL | 1.09 ± 0.046 |
| ZR751 BREAST | 0.802 ± 0.12 |
